Measurements published in patent US9771334B2, “Triketone compound and preparation method and use thereof” (SHANDONG CYNDA CHEMICAL CO., LTD., priority 2013, dated 2017).

How the values were obtained:
Assay in all cases: Herbicidal activity, pot culture method (primary and secondary screening test)
Assay type in all cases: in vivo
Conditions in all cases: primary screening, pot culture, 150 g/ha, sprayed at 3-leaf stage, result 15 days later
abutilon theophrasti = test system: abutilon theophrasti
Method in brief: (§1)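 Inhibition ratio (%) was scored 15 days after post-emergence spraying of 3-leaf-stage weeds grown in pots of soil:seedling matrix (1:2). Dose was 150 g/ha from a 0.2 g/L DMF/water solution applied by spray tower. The secondary screening used the same method at a reduced dose.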

amaranthus retroflexus = test system: amaranthus retroflexus
Method in brief: as §1

digitaria sanguinalis = test system: digitaria sanguinalis
Method in brief: as §1

echinochloa crusgalli = test system: echinochloa crusgalli
Method in brief: as §1

eclipta prostrata = test system: eclipta prostrata
Method in brief: as §1

setaria viridis = test system: setaria viridis
Method in brief: as §1

| Structure (SMILES) | herbicidal activity inhibition ratio (%), Abutilon theophrasti (abutilon theophrasti) [%] | herbicidal activity inhibition ratio (%), Amaranthus retroflexus (amaranthus retroflexus) [%] | herbicidal activity inhibition ratio (%), Digitaria sanguinalis (digitaria sanguinalis) [%] | herbicidal activity inhibition ratio (%), Echinochloa crusgalli (echinochloa crusgalli) [%] | herbicidal activity inhibition ratio (%), Eclipta prostrata (eclipta prostrata) [%] | herbicidal activity inhibition ratio (%), Setaria viridis (setaria viridis) [%] |
| --- | --- | --- | --- | --- | --- | --- |
| CCCCn1c(=O)n(-c2ccccc2C)c(=O)c2cc(C(=O)C3=C(O)CC(C)(C)CC3=O)ccc21 [Compound 74] | 50 | 0 | 0 | 0 | 0 | 10 |
| Cc1ccccc1-n1c(=O)c2cc(C(=O)C3=C(O)CCCC3=O)ccc2n(CC(C)C)c1=O [Compound 75] | 90 | 20 | 0 | 0 | 20 | 10 |
| Cc1ccccc1-n1c(=O)c2cc(C(=O)C3=C(O)CC(C)(C)CC3=O)ccc2n(CC(C)C)c1=O [Compound 76] | 20 | 0 | 0 | 0 | 0 | 10 |
| C#CCn1c(=O)n(-c2ccccc2C)c(=O)c2cc(C(=O)C3=C(O)CCCC3=O)ccc21 [Compound 77] | 90 | 90 | 0 | 50 | 35 | 20 |
| C#CCn1c(=O)n(-c2ccccc2C)c(=O)c2cc(C(=O)C3=C(O)CC(C)(C)CC3=O)ccc21 [Compound 78] | 0 | 0 | 0 | 0 | 0 | 10 |
| Cc1ccccc1-n1c(=O)c2cc(C(=O)C3=C(O)CCCC3=O)ccc2n(Cc2ccccc2)c1=O [Compound 79] | 0 | 0 | 0 | 0 | 0 | 10 |
| Cc1ccccc1-n1c(=O)c2cc(C(=O)C3=C(O)CC(C)(C)CC3=O)ccc2n(Cc2ccccc2)c1=O [Compound 80] | 0 | 0 | 0 | 0 | 0 | 10 |
| COc1cccc(Cn2c(=O)n(-c3ccccc3C)c(=O)c3cc(C(=O)C4=C(O)CC(C)(C)CC4=O)ccc32)c1 [Compound 81] | 0 | 0 | 0 | 0 | 0 | 10 |
| Cc1ccccc1-n1c(=O)c2c(C)c(C(=O)C3=C(O)CCCC3=O)ccc2n(C)c1=O [Compound 82] | 100 | 100 | 100 | 100 | 100 | 100 |
| Cc1ccccc1-n1c(=O)c2cc(C(=O)C3=C(O)CCCC3=O)ccc2n(Cc2ccccc2F)c1=O [Compound 83] | 0 | 0 | 30 | 50 | 90 | 50 |
| COc1cccc(Cn2c(=O)n(-c3ccccc3C)c(=O)c3cc(C(=O)C4=C(O)CCCC4=O)ccc32)c1 [Compound 84] | 0 | 0 | 25 | 50 | 80 | 10 |
| Cc1ccccc1-n1c(=O)c2cc(C(=O)C3=C(O)CC(C)(C)CC3=O)ccc2n(Cc2ccccc2F)c1=O [Compound 85] | 0 | 20 | 0 | 20 | 0 | 10 |
| Cc1ccccc1-n1c(=O)c2cc(C(=O)C3=C(O)CCCC3=O)ccc2n(C)c1=S [Compound 86] | 20 | 0 | 30 | 85 | 30 | 10 |
| Cc1ccccc1-n1c(=O)c2cc(C(=O)C3=C(O)CC(C)(C)CC3=O)ccc2n(C)c1=S [Compound 87, 6-[(2-hydroxy-4,4-dimethyl-6-oxo-1-cyclohexenyl)carbonyl]-1-methyl-2-thio-3-(o-tolyl)-2,3-dihydroxyquinazoline-4(1H)-ketone] | 0 | 0 | 0 | 25 | 0 | 10 |
| COc1ccccc1-n1c(=O)c2c(C)c(C(=O)C3=C(O)CCCC3=O)ccc2n(C)c1=O [Compound 88] | 100 | 100 | 100 | 100 | 100 | 100 |
| CCc1ccccc1-n1c(=O)c2cc(C(=O)C3=C(O)CC(C)(C)CC3=O)ccc2n(C)c1=O [Compound 89] | 100 | 100 | 60 | 80 | 70 | 75 |
| CC1CC(=O)C(C(=O)c2ccc3c(c2)c(=O)n(-c2ccc(Br)cc2)c(=O)n3C)=C(O)C1 (stereo not drawn) [Compound 90] | 92.5 | 20 | 93 | 90 | 83 | 85 |
| Cc1c(C(=O)C2=C(O)CCCC2=O)ccc2c1c(=O)n(-c1ccccc1C(F)(F)F)c(=O)n2C [Compound 92, 6-[(2-hydroxy-6-oxo-1-cyclohexenyl)carbonyl]-1,5-dimethyl-3-(2-(trifluoromethyl)phenyl)quinazoline-2,4(1H,3H)-dione] | 100 | 100 | 100 | 100 | 100 | 100 |
| Cc1cccc(C)c1-n1c(=O)c2c(C)c(C(=O)C3=C(O)CCCC3=O)ccc2n(C)c1=O [Compound 93] | 100 | 100 | 100 | 100 | 100 | 100 |
| Cn1c(=O)n(-c2c(Cl)cccc2Cl)c(=O)c2cc(C(=O)C3=C(O)CC(C)(C)CC3=O)ccc21 [Compound 94] | 95 | 95 | 88 | 93 | 98 | 95 |
| Cc1cccc(Cl)c1-n1c(=O)c2cc(C(=O)C3=C(O)CCCC3=O)ccc2n(C)c1=O [Compound 95] | 100 | 100 | 90 | 100 | 70 | 100 |
| Cc1cccc(Cl)c1-n1c(=O)c2cc(C(=O)C3=C(O)CC(C)(C)CC3=O)ccc2n(C)c1=O [Compound 96] | 95 | 100 | 30 | 55 | 83 | 95 |
